Earlier results as cited in patent publication US20080292714A1, “BONE TARGETING OF DEGRADABLE DRUG FILLED NANOPARTICLES” (Semafore Pharmaceuticals Inc., priority 2003, published 2008).

Columns and labels:
[1] = tested on: C8 (mouse embryo fibroblasts transformed with Ela+ras) cells; conditions: 10 micromolar
p53 = target: T1, p53 (Mus musculus, UniProt P02340)
T1 construct: endogenous in cells; host or cells: living mice, C57BL and Balb/c strains

[2] = portion not accumulated in skeleton

T1 sequence (P02340 whole entry): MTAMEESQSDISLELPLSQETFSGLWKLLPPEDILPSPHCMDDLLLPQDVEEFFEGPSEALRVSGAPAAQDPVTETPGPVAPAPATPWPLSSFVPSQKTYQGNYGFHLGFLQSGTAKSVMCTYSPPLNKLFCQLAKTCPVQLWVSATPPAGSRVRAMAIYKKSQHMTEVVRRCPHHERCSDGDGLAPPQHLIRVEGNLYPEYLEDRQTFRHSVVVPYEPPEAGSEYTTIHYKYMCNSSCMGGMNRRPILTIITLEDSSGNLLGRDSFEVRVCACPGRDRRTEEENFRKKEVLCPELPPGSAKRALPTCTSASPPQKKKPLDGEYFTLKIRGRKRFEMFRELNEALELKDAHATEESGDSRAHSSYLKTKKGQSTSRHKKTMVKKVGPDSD

## Cc1ccc(C(=O)Cn2c3c(sc2=N)CCCC3)cc1 [pifithrin-α, 2-[2-imino-4,5,6,7-tetrahydro-1,3-benzothiazol-3(2H)-yl]-1-(4-methylphenyl)-1-ethanone]
[1]
  inhibition of apoptosis induced by doxorubicin, etoposide, Taxol, cytosine arabinoside, UV light, gamma radiation: inhibited apoptosis
p53; 7 months post-irradiation
  tumors or pathological lesions in gamma-irradiated survivors: no tumors or pathological lesions were found
p53; irradiated treated mice
  weight loss versus controls: less weight-loss than controls
p53; p53-null mice controls
  protective effect in p53-null mice treated with radiation: no protective effect
p53; single i.p. injection 2.2 mg/kg, 8 Gy C57BL, 6 Gy Balb/c
  rescue from 60% killing doses of gamma radiation: completely rescued

## O=P([O-])(O)CN(CCN(CP(=O)([O-])O)CP(=O)(O)O)CP(=O)([O-])O.[153Sm+3] [^153Sm-EDTMP]
[2]
  time after administration at which excretion is almost complete: ≤ 6 h
